# According to ChEMBL document CHEMBL1155629, “Cytotoxic prenyleudesmane diterpenes from the fruits of Dysoxylum kuskusense” (2000):
# Assays:
# Format in all cases: functional
# Details in all cases: read-out: ED50 (the source's name)
# HT-29 = experiment: Cytotoxicity against human HT29 cells
# A549 = experiment: Cytotoxicity against human A549 cells
# P388 = experiment: Cytotoxicity against mouse P388 cells
Compound,EC50 (HT-29),EC50 (A549),EC50 (P388)
CC(C)=CC(=O)/C=C(\C)C1CC[C@@]2(C)CC(=O)C=C(C)[C@@H]2C1 (stereo partly specified) [DYSOKUSONE D],4.68 µg/mL,2.39 µg/mL,3.87 µg/mL
CC1=CC(=O)C[C@]2(C)CCC(/C(C)=C/C=C/C(C)(C)O)C[C@@H]12 (stereo partly specified) [DYSOKUSONE E],4.89 µg/mL,3.76 µg/mL,2.64 µg/mL
